Experimental data: patent US20260062387A1, “SALT-INDUCIBLE KINASE INHIBITOR COMPOUND AND PHARMACEUTICAL COMPOSITION INCLUDING THE SAME” (MITSUBISHI TANABE PHARMA CORPORATION, priority 2023, published 2026)

Columns and labels:
Assay type in all cases: biochemical
GST-tagged SIK1 = GST-tagged SIK1 (Homo sapiens (Human), UniProt P57059); assay: SIK1 inhibition test (ADP-Glo Max Assay); settings: enzyme 20 nM, AMARA Peptide 200 μM, ATP 1 mM, 2 hours room temperature
Method in brief: (§1)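 ADP formed was detected by luciferase luminescence after a 2 h room-temperature reaction with 1 mM ATP, 5 mM MgCl2 and AMARA peptide at 200 μM (SIK1, SIK2) or 100 μM (SIK3). Final GST-enzyme levels were 20 nM SIK1, 3 nM SIK2 and 100 nM SIK3. IC50 came from 16-point concentration-response data.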

GST-tagged SIK2 = GST-tagged SIK2 (Homo sapiens (Human), UniProt Q9H0K1); assay: SIK2 inhibition test (ADP-Glo Max Assay); settings: enzyme 3 nM, AMARA Peptide 200 μM, ATP 1 mM, 2 hours room temperature
GST-tagged SIK2, sequence (Q9H0K1 whole entry): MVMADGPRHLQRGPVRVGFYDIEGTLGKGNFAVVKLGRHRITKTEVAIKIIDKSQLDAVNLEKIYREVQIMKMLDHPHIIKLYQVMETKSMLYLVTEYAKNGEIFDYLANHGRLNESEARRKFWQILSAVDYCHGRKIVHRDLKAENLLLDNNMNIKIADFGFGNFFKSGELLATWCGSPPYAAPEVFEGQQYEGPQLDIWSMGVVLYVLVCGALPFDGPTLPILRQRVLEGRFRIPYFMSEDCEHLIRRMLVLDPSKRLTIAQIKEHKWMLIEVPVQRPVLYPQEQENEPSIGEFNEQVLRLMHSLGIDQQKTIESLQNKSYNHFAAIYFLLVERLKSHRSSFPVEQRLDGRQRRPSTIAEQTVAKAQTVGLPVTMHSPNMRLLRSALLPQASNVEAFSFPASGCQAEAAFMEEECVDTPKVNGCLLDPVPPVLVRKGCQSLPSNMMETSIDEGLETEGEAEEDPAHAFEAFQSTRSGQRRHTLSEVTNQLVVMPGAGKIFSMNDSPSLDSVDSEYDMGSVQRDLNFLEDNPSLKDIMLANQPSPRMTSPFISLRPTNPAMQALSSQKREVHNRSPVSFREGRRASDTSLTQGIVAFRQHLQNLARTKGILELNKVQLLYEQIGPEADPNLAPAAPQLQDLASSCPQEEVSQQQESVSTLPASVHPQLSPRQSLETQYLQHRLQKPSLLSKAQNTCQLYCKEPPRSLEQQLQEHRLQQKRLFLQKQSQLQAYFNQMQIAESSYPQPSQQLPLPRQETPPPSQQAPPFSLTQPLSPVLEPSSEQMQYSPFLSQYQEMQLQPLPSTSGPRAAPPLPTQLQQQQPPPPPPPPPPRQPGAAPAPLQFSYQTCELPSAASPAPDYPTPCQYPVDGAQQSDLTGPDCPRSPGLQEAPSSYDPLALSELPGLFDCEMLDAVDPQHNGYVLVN
Method in brief: as §1

GST-tagged SIK3 = GST-tagged SIK3 (Homo sapiens (Human), UniProt Q9Y2K2); assay: SIK3 inhibition test (ADP-Glo Max Assay); settings: enzyme 100 nM, AMARA Peptide 100 μM, ATP 1 mM, 2 hours room temperature
GST-tagged SIK3, sequence (Q9Y2K2 whole entry): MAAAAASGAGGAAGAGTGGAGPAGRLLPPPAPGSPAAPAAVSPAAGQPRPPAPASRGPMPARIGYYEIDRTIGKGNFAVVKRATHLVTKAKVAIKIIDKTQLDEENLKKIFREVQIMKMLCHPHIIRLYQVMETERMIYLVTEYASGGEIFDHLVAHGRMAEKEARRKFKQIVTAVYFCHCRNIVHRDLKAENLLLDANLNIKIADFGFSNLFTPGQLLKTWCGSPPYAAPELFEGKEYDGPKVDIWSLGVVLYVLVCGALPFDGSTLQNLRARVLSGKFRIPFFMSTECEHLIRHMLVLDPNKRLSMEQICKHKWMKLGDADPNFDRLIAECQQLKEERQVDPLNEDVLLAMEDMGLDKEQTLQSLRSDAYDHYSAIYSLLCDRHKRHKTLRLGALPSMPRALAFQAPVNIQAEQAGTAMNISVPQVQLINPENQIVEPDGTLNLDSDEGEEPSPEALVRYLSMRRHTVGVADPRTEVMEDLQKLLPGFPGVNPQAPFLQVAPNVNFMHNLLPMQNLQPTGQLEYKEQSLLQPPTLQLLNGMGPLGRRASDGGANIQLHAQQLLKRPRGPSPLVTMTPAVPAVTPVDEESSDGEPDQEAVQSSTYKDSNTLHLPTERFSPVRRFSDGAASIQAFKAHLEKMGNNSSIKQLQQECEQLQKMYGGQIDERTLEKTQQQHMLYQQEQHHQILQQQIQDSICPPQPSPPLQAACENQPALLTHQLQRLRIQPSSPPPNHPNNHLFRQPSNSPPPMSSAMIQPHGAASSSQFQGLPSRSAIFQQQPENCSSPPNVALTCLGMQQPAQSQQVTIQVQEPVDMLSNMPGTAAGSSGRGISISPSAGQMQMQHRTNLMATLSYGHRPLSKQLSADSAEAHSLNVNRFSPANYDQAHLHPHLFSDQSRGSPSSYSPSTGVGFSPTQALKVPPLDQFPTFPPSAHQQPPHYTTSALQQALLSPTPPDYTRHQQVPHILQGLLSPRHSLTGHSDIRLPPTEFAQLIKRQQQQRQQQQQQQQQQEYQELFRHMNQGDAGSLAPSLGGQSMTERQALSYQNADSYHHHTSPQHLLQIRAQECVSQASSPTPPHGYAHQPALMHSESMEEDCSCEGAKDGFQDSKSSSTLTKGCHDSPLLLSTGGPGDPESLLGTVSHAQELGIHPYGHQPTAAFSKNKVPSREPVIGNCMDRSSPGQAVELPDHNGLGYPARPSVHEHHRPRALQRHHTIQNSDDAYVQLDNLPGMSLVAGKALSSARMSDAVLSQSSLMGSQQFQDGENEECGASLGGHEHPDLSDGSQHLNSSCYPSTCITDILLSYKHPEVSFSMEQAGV
Method in brief: as §1

GST-tagged SIK1, sequence (P57059 whole entry): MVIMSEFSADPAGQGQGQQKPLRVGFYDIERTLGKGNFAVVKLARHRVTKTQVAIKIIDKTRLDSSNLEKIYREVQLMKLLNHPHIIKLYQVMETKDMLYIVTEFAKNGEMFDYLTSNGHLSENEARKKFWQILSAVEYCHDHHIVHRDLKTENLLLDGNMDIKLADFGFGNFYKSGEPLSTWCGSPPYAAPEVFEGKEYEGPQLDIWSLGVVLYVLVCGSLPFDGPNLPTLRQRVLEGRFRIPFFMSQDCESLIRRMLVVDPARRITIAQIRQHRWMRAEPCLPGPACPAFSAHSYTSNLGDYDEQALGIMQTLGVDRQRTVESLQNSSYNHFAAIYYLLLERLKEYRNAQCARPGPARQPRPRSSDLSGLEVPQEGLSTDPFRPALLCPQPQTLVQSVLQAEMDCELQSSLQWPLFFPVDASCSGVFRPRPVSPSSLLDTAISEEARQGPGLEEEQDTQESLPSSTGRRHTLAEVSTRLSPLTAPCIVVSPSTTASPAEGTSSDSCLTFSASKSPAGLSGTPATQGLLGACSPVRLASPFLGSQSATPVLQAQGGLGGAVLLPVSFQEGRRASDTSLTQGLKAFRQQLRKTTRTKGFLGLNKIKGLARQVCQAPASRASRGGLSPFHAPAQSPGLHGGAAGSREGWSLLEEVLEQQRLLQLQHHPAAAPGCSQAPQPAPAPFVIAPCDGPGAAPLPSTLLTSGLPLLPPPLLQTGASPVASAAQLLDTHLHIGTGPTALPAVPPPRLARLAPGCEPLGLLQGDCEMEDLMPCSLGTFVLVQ

IC50 (GST-tagged SIK1) [nM]	IC50 (GST-tagged SIK2) [nM]	IC50 (GST-tagged SIK3) [nM]	Compound
13.7	6.7	6.3	COc1cc(-c2c3c(C#N)cc(-c4cnn(C[C@H](C)O)c4)cc3nn2C)cc(OC(F)F)c1C(=O)NCC1(F)CC1 [Example 58, 4-[4-cyano-6-[1-[(2S)-2-hydroxypropyl]pyrazol-4-yl]-2-methylindazol-3-yl]-2-(difluoromethoxy)-N-[(1-fluorocyclopropyl)methyl]-6-methoxybenzamide]
14.1	3.8	6.6	COc1cc(-c2c3c(C#N)cc(-c4cnn(CC5COC5)c4)cc3nn2C)cc(OC(F)F)c1C(=O)NCC1(F)CC1 [Example 59, 4-[4-cyano-2-methyl-6-[1-(oxetan-3-ylmethyl)pyrazol-4-yl]indazol-3-yl]-2-(difluoromethoxy)-N-[(1-fluorocyclopropyl)methyl]-6-methoxybenzamide]
6.9	4.8	4.9	COc1cc(-c2c3c(C(F)F)cc(-c4cnn(CC(=O)N(C)C)c4)cc3nn2C)cc(OC(F)F)c1C(=O)N1CC(O)(C(F)(F)F)C1 [Example 60, 2-[4-[3-[3-(difluoromethoxy)-4-[3-hydroxy-3-(trifluoromethyl)azetidin-1-carbonyl]-5-methoxyphenyl]-4-(difluoromethyl)-2-methylindazol-6-yl]pyrazol-1-yl]-N,N-dimethylacetamide]
4.7	7.4	7.4	COc1cc(-c2c3c(C(F)F)cc(-c4cnn(CC(=O)N(C)C)c4)cc3nn2C)cc(OC(F)F)c1C(=O)N1CC(O)(C(F)F)C1 [Example 61, 2-[4-[3-[3-(difluoromethoxy)-4-[3-(difluoromethyl)-3-hydroxyazetidin-1-carbonyl]-5-methoxyphenyl]-4-(difluoromethyl)-2-methylindazol-6-yl]pyrazol-1-yl]-N,N-dimethylacetamide]
7.5	4.3	9.7	COc1cc(-c2c3c(OC(F)F)cc(-c4cn(C)nn4)cc3nn2C)cc(OC(F)F)c1C(=O)N1CC(O)(C(F)F)C1 [Example 63, [2-(difluoromethoxy)-4-[4-(difluoromethoxy)-2-methyl-6-(1-methyltriazol-4-yl)indazol-3-yl]-6-methoxyphenyl]-[3-(difluoromethyl)-3-hydroxyazetidin-1-yl]methanone]
11.4	14.1	5.7	COc1cc(-c2c3c(C(F)F)cc(-c4cnn(CCS(C)(=O)=O)c4)cc3nn2C)cc(OC(F)F)c1C(=O)N1CC(O)(C(F)F)C1 [Example 66, [2-(difluoromethoxy)-4-[4-(difluoromethyl)-2-methyl-6-[1-(2-methylsulfonylethyl)pyrazol-4-yl)indazol-3-yl]-6-methoxyphenyl]-[3-(difluoromethyl)-3-hydroxyazetidin-1-yl]methanone]
8.5	12.7	4.8	COc1cc(-c2c3c(C(F)F)cc(-c4cnn(C[C@H](C)O)c4)cc3nn2C)cc(OC(F)F)c1C(=O)N1CC(O)(C(F)F)C1 [Example 67, [2-(difluoromethoxy)-4-[4-(difluoromethyl)-6-[1-[(2S)-2-hydroxypropyl]pyrazol-4-yl]-2-methylindazol-3-yl]-6-methoxyphenyl]-[3-(difluoromethyl)-3-hydroxyazetidin-1-yl]methanone]
9.4	14.2	2.5	COc1cc(-c2c3c(C(F)F)cc(-c4cn[nH]c4)cc3nn2C)cc(OC(F)F)c1C(=O)N1CC(O)(C(F)(F)F)C1 [Example 68, [2-(difluoromethoxy)-4-[4-(difluoromethyl)-2-methyl-6-(1H-pyrazol-4-yl)indazol-3-yl]-6-methoxyphenyl]-[3-hydroxy-3-(trifluoromethyl)azetidin-1-yl]methanone]
8.3	10.9	2	COc1cc(-c2c3c(C(F)F)cc(-c4cn[nH]c4)cc3nn2C)cc(OC(F)F)c1C(=O)N1CC(O)(C(F)F)C1 [Example 69, [2-(difluoromethoxy)-4-[4-(difluoromethyl)-2-methyl-6-(1H-pyrazol-4-yl)indazol-3-yl]-6-methoxyphenyl]-[3-(difluoromethyl)-3-hydroxyazetidin-1-yl]methanone]
15.3	11.2	3.7	COc1cc(-c2c3c(C#N)cc(-c4cn[nH]c4)cc3nn2C)cc(OC(F)F)c1C(=O)N1CC(O)(C(F)(F)F)C1 [Example 70, 3-[3-(difluoromethoxy)-4-[3-hydroxy-3-(trifluoromethyl)azetidin-1-carbonyl]-5-methoxyphenyl]-2-methyl-6-(1H-pyrazol-4-yl)indazole-4-carbonitrile]
17.4	3.8	6.5	COc1cc(-c2c3c(C#N)cc(-c4cnn(C)c4)cc3nn2C)cc(OC(F)F)c1C(N)=O [Example 73, 4-[4-cyano-2-methyl-6-(1-methylpyrazol-4-yl)indazol-3-yl]-2-(difluoromethoxy)-6-methoxybenzamide]
8.4	2.6	6.1	COc1cc(-c2c3c(C#N)cc(-c4cnn(CC5CS(=O)(=O)C5)c4)cc3nn2C)cc(OC(F)F)c1C(=O)NCC1(F)CC1 [Example 74, 4-[4-cyano-6-[1-[(1,1-dioxothietan-3-yl)methyl]pyrazol-4-yl]-2-methylindazol-3-yl]-2-(difluoromethoxy)-N-[(1-fluorocyclopropyl)methyl]-6-methoxybenzamide]
14.8	2.7	13.3	COc1cc(-c2c3c(C#N)cc(-c4cnn(Cc5ncco5)c4)cc3nn2C)cc(OC(F)F)c1C(=O)NCC1(F)CC1 [Example 75]
17.6	5.3	11.7	COc1cc(-c2c3c(C#N)cc(-c4cnn(CC5(F)COC5)c4)cc3nn2C)cc(OC(F)F)c1C(=O)NCC1(F)CC1 [Example 76, 4-[4-cyano-6-[1-[(3-fluorooxetan-3-yl)methyl]pyrazol-4-yl]-2-methylindazol-3-yl]-2-(difluoromethoxy)-N-[(1-fluorocyclopropyl)methyl]-6-methoxybenzamide]
11.8	5.2	10.1	COc1cc(-c2c3c(C#N)cc(-c4cnn(C)c4)cc3nn2C)cc2c1C(=O)NCC2C (stereo not drawn) [Example 77, 3-(8-methoxy-4-methyl-1-oxo-3,4-dihydro-2H-isoquinolin-6-yl)-2-methyl-6-(1-methylpyrazol-4-yl)indazol-4-carbonitrile]
12.6	5.4	6.7	COc1cc(-c2c3c(C#N)cc(-c4cnn(CC5CCOC5)c4)cc3nn2C)cc(OC(F)F)c1C(=O)NCC1(F)CC1 (stereo not drawn) [Example 78, 4-[4-cyano-2-methyl-6-[1-(oxolan-3-ylmethyl)pyrazol-4-yl]indazol-3-yl]-2-(difluoromethoxy)-N-[(1-fluorocyclopropyl)methyl]-6-methoxybenzamide]
12.5	6.8	8.1	COc1cc(-c2c3c(C#N)cc(-c4cnn(CC5CCCO5)c4)cc3nn2C)cc(OC(F)F)c1C(=O)NCC1(F)CC1 (stereo not drawn) [Example 79, 4-[4-cyano-2-methyl-6-[1-(oxolan-2-ylmethyl)pyrazol-4-yl]indazol-3-yl]-2-(difluoromethoxy)-N-[(1-fluorocyclopropyl)methyl]-6-methoxybenzamide]
